# Laboratory results taken from patent publication US20250059174A1, “Pharmaceutical Compounds and Compositions as C-Kit Kinase Inhibitors” (Enanta Pharmaceuticals, Inc., priority 2023, published 2025).
# Assays:
# [1] = target: Recombinant human c-KIT kinase (Homo sapiens (Human), UniProt P10721); assay: c-KIT kinase chemiluminescence assay (ADP-Glo); format: biochemical; details: ATP 50 μM
# Procedure, shortened: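 Recombinant human c-KIT preincubated 30 min at RT in 40 mM Tris pH 7.5, 20 mM MgCl2, 0.1 mg/mL BSA, 50 μM DTT, then reacted 2 h at RT with ATP and polyEY substrate. ADP-Glo luminescence readout; activity normalized to high/low controls, IC50 and Hill coefficient from inhibitor-versus-normalized-response fit.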
# M-07e cells = assay: M-07e cellular assay (SCF-mediated cell proliferation); format: cell-based; details: Homo sapiens, 72 hours, CellTiter Glo
# Procedure, shortened: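 EC50 values reflect inhibition of SCF-driven proliferation, with SCF at EC90 and a 72 h compound exposure, measured as CellTiter Glo luminescence. Growth is scaled between no-SCF (0%) and untreated (100%) wells.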
# Chain of Recombinant human c-KIT kinase (P10721 26-976): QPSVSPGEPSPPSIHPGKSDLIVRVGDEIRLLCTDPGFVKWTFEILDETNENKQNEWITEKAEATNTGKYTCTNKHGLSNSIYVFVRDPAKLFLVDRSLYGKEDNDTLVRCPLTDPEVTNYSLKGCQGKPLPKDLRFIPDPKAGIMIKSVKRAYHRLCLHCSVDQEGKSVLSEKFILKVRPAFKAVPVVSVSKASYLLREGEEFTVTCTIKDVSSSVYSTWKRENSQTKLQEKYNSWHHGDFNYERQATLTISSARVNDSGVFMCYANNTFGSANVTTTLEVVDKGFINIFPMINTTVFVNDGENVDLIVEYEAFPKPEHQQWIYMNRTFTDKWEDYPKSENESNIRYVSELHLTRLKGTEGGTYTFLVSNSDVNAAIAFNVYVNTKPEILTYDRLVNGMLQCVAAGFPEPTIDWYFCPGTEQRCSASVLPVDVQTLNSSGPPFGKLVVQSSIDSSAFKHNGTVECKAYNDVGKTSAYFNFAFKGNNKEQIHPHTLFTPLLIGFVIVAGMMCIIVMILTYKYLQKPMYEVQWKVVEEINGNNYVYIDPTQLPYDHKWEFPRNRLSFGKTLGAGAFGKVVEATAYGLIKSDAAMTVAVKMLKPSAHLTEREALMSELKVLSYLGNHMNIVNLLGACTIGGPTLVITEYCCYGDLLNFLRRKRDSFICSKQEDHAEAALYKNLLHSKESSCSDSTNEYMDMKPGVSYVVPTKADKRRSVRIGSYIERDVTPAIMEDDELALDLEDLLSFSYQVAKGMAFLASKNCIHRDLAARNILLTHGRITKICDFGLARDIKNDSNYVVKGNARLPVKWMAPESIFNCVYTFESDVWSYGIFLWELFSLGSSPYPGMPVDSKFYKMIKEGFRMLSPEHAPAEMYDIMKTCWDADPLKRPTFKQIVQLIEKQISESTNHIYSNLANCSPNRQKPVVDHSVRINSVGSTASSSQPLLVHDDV
SMILES,IC50 [1],EC50 (M-07e cells)
Cc1ccc(-c2noc([C@H]3C[C@@H]3F)n2)cc1NC(=O)c1cnn2ccc(N3CC[C@@H](N)C3)cc12 [Example 197],100 to 1000 nM,< 100 nM
Cc1ccc(-c2noc([C@H]3C[C@@H]3F)n2)cc1NC(=O)c1cnn2ccc(N3CC[C@H](N)C3)cc12 [Example 198],< 100 nM,100 to 1000 nM
Cc1ccc(-c2noc([C@H]3C[C@@H]3F)n2)cc1NC(=O)c1cnn2ccc(N3C[C@H]4C[C@@H]3CO4)cc12 [Example 199],< 100 nM,< 100 nM
Cc1ccc(-c2noc([C@H]3C[C@@H]3F)n2)cc1NC(=O)c1cnn2ccc(N3C[C@@H]4C[C@H]3CO4)cc12 [Example 200],< 100 nM,< 100 nM
Cc1ccc(-c2noc([C@H]3C[C@@H]3F)n2)cc1NC(=O)c1cnn2ccc(N3CCCC4(COC4)C3)cc12 [Example 201],< 100 nM,< 100 nM
Cc1ccc(-c2noc([C@H]3C[C@@H]3F)n2)cc1NC(=O)c1cnn2ccc(N3CC4(CN(C)C4)C3)cc12 [Example 202],100 to 1000 nM,100 to 1000 nM
Cc1ccc(-c2noc([C@H]3C[C@@H]3F)n2)cc1NC(=O)c1cnn2ccc(N3CC[C@H](N(C)C(=O)OC(C)(C)C)C3)cc12 [Example 203],< 100 nM,100 to 1000 nM
Cc1ccc(-c2noc([C@H]3C[C@@H]3F)n2)cc1NC(=O)c1cnn2ccc(N3C4CCC3CC(O)C4)cc12 (some centres unmarked) [Example 204],< 100 nM,< 100 nM
CN[C@H]1CCN(c2ccn3ncc(C(=O)Nc4cc(-c5noc([C@H]6C[C@@H]6F)n5)ccc4C)c3c2)C1 [Example 205],< 100 nM,100 to 1000 nM
Cc1ccc(-c2noc([C@H]3C[C@@H]3F)n2)cc1NC(=O)c1cnn2cc(F)c(N3CC4(COC4)C3)cc12 [Example 206],100 to 1000 nM,100 to 1000 nM
Cc1ccc(-c2noc([C@H]3C[C@@H]3F)n2)cc1NC(=O)c1cnn2ccc(N3CC4(CN(C(=O)OC(C)(C)C)C4)C3)cc12 [Example 207],< 100 nM,100 to 1000 nM
Cc1ccc(-c2noc([C@H]3C[C@@H]3F)n2)cc1NC(=O)c1cnn2ccc(N3CC(C(=O)OC(C)(C)C)C3)cc12 [Example 208],100 to 1000 nM,100 to 1000 nM
Cc1ccc(-c2noc([C@H]3C[C@@H]3F)n2)cc1NC(=O)c1cnn2ccc(N3CC[C@H]3C(=O)OC(C)(C)C)cc12 [Example 209],100 to 1000 nM,100 to 1000 nM
Cc1ccc(-c2noc([C@H]3C[C@@H]3F)n2)cc1NC(=O)c1cnn2ccc(N3CC4CCC3CN4C(=O)OC(C)(C)C)cc12 (some centres unmarked) [Example 210],100 to 1000 nM,100 to 1000 nM
Cc1ccc(-c2noc([C@H]3C[C@@H]3F)n2)cc1NC(=O)c1cnn2ccc(N3CC4(CNC4)C3)cc12 [Example 211],< 100 nM,100 to 1000 nM
Cc1ccc(-c2noc([C@H]3C[C@@H]3F)n2)cc1NC(=O)c1cnn2ccc(N3CC4(CN(CC(F)F)C4)C3)cc12 [Example 212],< 100 nM,< 100 nM
Cc1ccc(-c2noc([C@H]3C[C@@H]3F)n2)cc1NC(=O)c1cnn2ccc(N3CC4(C3)CC(F)(F)C4)cc12 [Example 213],< 100 nM,< 100 nM
Cc1ccc(-c2noc([C@H]3C[C@@H]3F)n2)cc1NC(=O)c1cnn2ccc(N3CCO[C@H](C)C3)cc12 [Example 214],< 100 nM,< 100 nM
Cc1ccc(-c2noc([C@H]3C[C@@H]3F)n2)cc1NC(=O)c1cnn2ccc(N3CCO[C@@H](C)C3)cc12 [Example 215],< 100 nM,< 100 nM
Cc1ccc(-c2noc([C@H]3C[C@@H]3F)n2)cc1NC(=O)c1cnn2ccc(N3CCC4(C3)CC4(F)F)cc12 (some centres unmarked) [Example 216],< 100 nM,< 100 nM
Cc1ccc(-c2noc([C@H]3C[C@@H]3F)n2)cc1NC(=O)c1cnn2ccc(N3CC4(C3)CC4(F)F)cc12 [Example 217],< 100 nM,< 100 nM
CC(=O)N1CC(Oc2ccn3ncc(C(=O)Nc4cc(-c5noc([C@H]6C[C@@H]6F)n5)ccc4C)c3c2)C1 [Example 218],100 to 1000 nM,100 to 1000 nM
Cc1ccc(-c2noc([C@H]3C[C@@H]3F)n2)cc1NC(=O)c1cnn2ccc(OC3COC3)cc12 [Example 219],< 100 nM,< 100 nM
Cc1ccc(-c2noc([C@H]3C[C@@H]3F)n2)cc1NC(=O)c1cnn2ccc(O[C@@H]3CCOC3)cc12 [Example 220],< 100 nM,100 to 1000 nM
Cc1ccc(-c2noc([C@H]3C[C@@H]3F)n2)cc1NC(=O)c1cnn2ccc(O[C@H]3CCOC3)cc12 [Example 221],< 100 nM,100 to 1000 nM
Cc1ccc(-c2noc([C@H]3C[C@@H]3F)n2)cc1NC(=O)c1cnn2ccc(N3CC(F)(F)C3)cc12 [Example 222],< 100 nM,100 to 1000 nM

SMILES,IC50 [1],EC50 (M-07e cells)
Cc1ccc(-c2noc([C@H]3C[C@@H]3F)n2)cc1NC(=O)c1cnn2ccc(N3CC(F)(C(F)(F)F)C3)cc12 [Example 223],100 to 1000 nM,100 to 1000 nM
Cc1ccc(-c2noc([C@H]3C[C@@H]3F)n2)cc1NC(=O)c1cnn2ccc(N3C[C@@H](F)[C@@H]3C)cc12 [Example 224],< 100 nM,< 100 nM
Cc1ccc(-c2noc([C@H]3C[C@@H]3F)n2)cc1NC(=O)c1cnn2ccc(N3CC(C(F)(F)F)C3)cc12 [Example 225],< 100 nM,100 to 1000 nM
COC1(OC)CC2(CN(c3ccn4ncc(C(=O)Nc5cc(-c6noc([C@H]7C[C@@H]7F)n6)ccc5C)c4c3)C2)C1 [Example 226],< 100 nM,< 100 nM
Cc1ccc(-c2noc([C@H]3C[C@@H]3F)n2)cc1NC(=O)c1cnn2ccc(N3CC4(CCC4)C3)cc12 [Example 227],< 100 nM,100 to 1000 nM
Cc1ccc(-c2noc([C@H]3C[C@@H]3F)n2)cc1NC(=O)c1cnn2ccc(N3CC4CC3C4(C)C)cc12 (some centres unmarked) [Example 228],< 100 nM,100 to 1000 nM
Cc1ccc(-c2noc([C@H]3C[C@@H]3F)n2)cc1NC(=O)c1cnn2ccc(N3CCN(CC(F)(F)F)[C@H](C)C3)cc12 [Example 230],< 100 nM,< 100 nM
Cc1ccc(-c2noc([C@H]3C[C@@H]3F)n2)cc1NC(=O)c1cnn2ccc(N3CC4(CC(=O)C4)C3)cc12 [Example 231],< 100 nM,< 100 nM
Cc1ccc(-c2noc([C@H]3C[C@@H]3F)n2)cc1NC(=O)c1cnn2ccc(N3CC4(C3)CC(O)(C(F)F)C4)cc12 [Example 232],< 100 nM,< 100 nM
Cc1ccc(-c2noc([C@H]3C[C@@H]3F)n2)cc1NC(=O)c1cnn2ccc(N3CC4(C3)CC(O)(C(F)(F)F)C4)cc12 [Example 233],< 100 nM,< 100 nM
CC(=O)N1CCN(c2ccn3ncc(C(=O)Nc4cc(-c5noc([C@H]6C[C@@H]6F)n5)ccc4C)c3c2)C[C@H]1C [Example 234],< 100 nM,< 100 nM
Cc1ccc(-c2noc([C@H]3C[C@@H]3F)n2)cc1NC(=O)c1cnn2ccc(N3CC4(CCN4C(=O)OC(C)(C)C)C3)cc12 [Example 235],> 1000 nM,> 1000 nM
Cc1ccc(-c2noc([C@H]3C[C@@H]3F)n2)cc1NC(=O)c1cnn2ccc(-n3cc(NC(=O)OC(C)(C)C)cn3)cc12 [Example 236],100 to 1000 nM,100 to 1000 nM
Cc1ccc(-c2noc([C@H]3C[C@@H]3F)n2)cc1NC(=O)c1cnn2ccc(-n3cc(N)cn3)cc12 [Example 237],< 100 nM,100 to 1000 nM
Cc1ccc(-c2noc([C@H]3C[C@@H]3F)n2)cc1NC(=O)c1cnn2ccc(Nc3cn[nH]c3)cc12 [Example 238],< 100 nM,< 100 nM
Cc1ccc(-c2noc([C@H]3C[C@@H]3F)n2)cc1NC(=O)c1cnn2ccc(N3CC4(CCN4)C3)cc12 [Example 239],< 100 nM,100 to 1000 nM
CCC1(O)CC2(CN(c3ccn4ncc(C(=O)Nc5cc(-c6noc([C@H]7C[C@@H]7F)n6)ccc5C)c4c3)C2)C1 [Example 240],< 100 nM,< 100 nM
Cc1ccc(-c2noc([C@H]3C[C@@H]3F)n2)cc1NC(=O)c1cnn2ccc(N3CC4(C3)CN(S(C)(=O)=O)C4)cc12 [Example 241-1],< 100 nM,< 100 nM
Cc1ccc(-c2noc([C@H]3C[C@@H]3F)n2)cc1NC(=O)c1cnn2ccc(N3CC4(COC(C)(C)OC4)C3)cc12 [Example 241-2],< 100 nM,> 1000 nM
Cc1ccc(-c2noc([C@H]3C[C@@H]3F)n2)cc1NC(=O)c1cnn2ccc(N3CC(CO)(CO)C3)cc12 [Example 241-3],< 100 nM,< 100 nM
Cc1ccc(-c2noc([C@H]3C[C@@H]3F)n2)cc1NC(=O)c1cnn2ccc(N3CCN(C(=O)C(F)(F)F)[C@H](C)C3)cc12 [Example 241-4],< 100 nM,< 100 nM
Cc1ccc(-c2noc([C@H]3C[C@@H]3F)n2)cc1NC(=O)c1cnn2ccc(N3CCN(C(=O)C4CC4)[C@H](C)C3)cc12 [Example 241-5],< 100 nM,< 100 nM
CC(=O)N1CCN(c2ccn3ncc(C(=O)Nc4cc(-c5noc([C@H]6C[C@@H]6F)n5)ccc4C)c3c2)CC1 [Example 241-6],< 100 nM,< 100 nM
Cc1ccc(-c2noc([C@H]3C[C@@H]3F)n2)cc1NC(=O)c1cnn2ccc(N3CCN(C(=O)OC(C)(C)C)[C@H](C)C3)cc12 [Example 241-7],100 to 1000 nM,< 100 nM
Cc1ccc(-c2noc([C@H]3C[C@@H]3F)n2)cc1NC(=O)c1cnn2ccc(NCC3(CO)COC3)cc12 [Example 241-8],< 100 nM,< 100 nM
Cc1ccc(-c2noc([C@H]3C[C@@H]3F)n2)cc1NC(=O)c1cnn2ccc(NCC3(C(=O)OC(C)(C)C)COC3)cc12 [Example 241-9],100 to 1000 nM,100 to 1000 nM
